# Experimental data taken from patent US6372297B1, “Wood preservative oxathiazines” (Uniroyal Chemical Company, Inc., priority 1993, dated 2002).
# Like-named read-outs stand apart in the source and are kept apart here.
# Tests used:
# Aureobasidium pullulans = experiment: Control of molds and blue stain fungi in stick test (beech sticks); details: minimum concentration producing a score less than or equal to 1; dosages 50-1000 ppm
# Protocol: (§1) The compounds shown in Table 1 were dissolved in 50% ethanol and a dilution series was made using the same solvent. In 25 ml of each dilution, one oven-dried beech stick (73×18×2 mm) was drenched until saturated.
# (§2) Test dosages were 50, 100, 250, 500, and 1000 ppm for blue stain fungi which were Aureobasidium pullulans and Sclerophoma pithyophila. Test dosages for the molds used (Trichoderma viride, Aspergillus niger) were 250, 500, 1000, 2500, and 5000 ppm.
# (§3) After three hours the test solution was poured off and each stick was allowed to dry in a sterile laminar air flow. In each Petri dish one stick was placed on malt agar previously seeded with inoculum. Two drops of fungal or spore suspension were pipetted on the upper surface of the stick. The Petri dishes were then incubated at 22° C. and 90% relative humidity. The treated sticks were evaluated after sufficient growth of the fungus on the untreated control sticks. The following score system was used to rate the effectiveness of the compounds:
# (§4) 0=stick free of fungal growth
# (§5) 1=traces of fungal growth on stick
# (§6) 2=slight fungal growth (5 to 25% of the surface covered)
# (§7) 3=moderate fungal growth (25 to 50% of the surface covered)
# (§8) 4=vigorous fungal growth (greater than 50% of the surface covered).
# (§9) For purposes of comparison of these compounds, these values were converted to threshold ranges. The threshold value in this system is defined as the minimum concentration of a particular compound which produces a score less than or equal to 1.
# Aspergillus niger = experiment: as above; details: minimum concentration producing a score less than or equal to 1; dosages 250-5000 ppm
# Protocol: as §1, §2, §3, §4, §5, §6, §7, §8, §9
# Trichoderma viride = experiment: as above; details: minimum concentration producing a score less than or equal to 1; dosages 250-5000 ppm
# Protocol: as §1, §2, §3, §4, §5, §6, §7, §8, §9
# Sclerophoma pithyophila = experiment: as above; details: minimum concentration producing a score less than or equal to 1; dosages 50-1000 ppm
# Protocol: as §1, §2, §3, §4, §5, §6, §7, §8, §9
# Debaryomyces hansenii = experiment: Wood preservative efficacy against bacteria and yeasts, tryptose agar plates; type: cell-based; parameters: key: 0 = growth equal to control, 1 = inhibition, 2 = no growth
# Protocol: Compositions were prepared by dissolving the compounds shown in Table 1 in 50% ethanol and further diluting with sterile distilled water. […] After cooling, the medium was inoculated with the bacteria listed below. After sufficient growth of the untreated cultures, the compounds were evaluated using the following rating system: 0=growth equal to control 1=inhibition of growth by the compound 2=no growth under the influence of the compound. In this Table, the higher numbers are the most preferred species. Debaryomyces hansenii (yeast)
# [1] = system: molds and blue-stain fungi; experiment: In vitro activity against molds and blue-stain fungi, poison plate assay (MIC); type: cell-based; details: malt extract agar, complete inhibition
# How it was run: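 Poison plate format: compound diluted in sterile water and mixed into malt extract agar, then plates inoculated with each fungus. Growth inhibition scored at each concentration to give the MIC.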
# [2] = system: mixed spore suspension: Aureobasidium pullulans, Aspergillus amstelodami, Ceratocystis pilifera, Cladosporium sp., Penicillium sp., Sclerophomas entoxylina …; experiment: Control of molds and sapstain fungi in mini-board test; parameters: key to Surface score of treated mini-boards, 3 week incubation, 1500 ppm / Surface score of treated mini-boards, 3 week incubation, 2500 ppm: 0: Free of fungal growth; 1: Traces of fungal growth; 2: Little fungal growth; 3: Moderate fungal growth; 4: Vigorous to maximum growth (all surfaces covered with fungal growth)
# [3] = system: blue-stain fungi and molds; experiment: Activity against blue-stain fungi and molds in a stick test (threshold concentrations); details: beech sticks, 22° C., 90% relative humidity; for Threshold concentration (ppm), A. niger, score 0 / Threshold concentration (ppm), Aureobasidium, score 0 / Threshold concentration (ppm), Sclerophoma, score 0 / Threshold concentration (ppm), Trichoderma, score 0: minimum concentration to obtain score 0; for Threshold concentration (ppm), A. niger, score 1-2 / Threshold concentration (ppm), Aureobasidium, score 1-2 / Threshold concentration (ppm), Sclerophoma, score 1-2 / Threshold concentration (ppm), Trichoderma, score 1-2: minimum concentration to obtain score 1-2
# How it was run: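 Wood sticks soaked 3 h in compound serially diluted in 50% ethanol, dried, then inoculated with fungal or spore suspension. Incubated at 22° C and 90% relative humidity until untreated controls grew, then growth scored 0 (none) to 4 (>50% surface covered).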
SMILES,"Threshold value in stick test, AUREOBASIDIUM PULLULANS (Aureobasidium pullulans)","Threshold value in stick test, A[…] (Aspergillus niger)","Threshold value in stick test, TRICHODERMA VIRIDE (Trichoderma viride)","Threshold value in stick test, SCLEROPHOMA PYTHIOPHILA (Sclerophoma pithyophila)","Score of bactericidal activity, D. hansenii (Debaryomyces hansenii; 10 ppm in tryptose agar)","Score of bactericidal activity, D. hansenii (Debaryomyces hansenii; 100 ppm in tryptose agar)",MIC (ppm) against A. amstelodami [1] [ppm],MIC (ppm) against A. niger ([1]; A. niger) [ppm],MIC (ppm) against A. pullulans ([1]; A. pullulans) [ppm],MIC (ppm) against A. versicolor [1] [ppm],MIC (ppm) against C. cladosporioides ([1]; C. cladosporioides) [ppm],MIC (ppm) against C. pilifera [1] [ppm],MIC (ppm) against F. solani [1] [ppm],MIC (ppm) against G. candidum ([1]; G. candidum) [ppm],MIC (ppm) against P. purpurogenum [1] [ppm],MIC (ppm) against P. variotii [1] [ppm],MIC (ppm) against P. violacea [1] [ppm],MIC (ppm) against S. atra [1] [ppm],MIC (ppm) against S. entoxylina [1] [ppm],MIC (ppm) against U. atrum [1] [ppm],also measured
C[S+]1CCON=C1c1ccc(Cl)cc1 (stereo not shown) [Compound 1],>1000 ppm,1000-2500 ppm,2500-5000 ppm,100-250 ppm,2,2,–,–,–,–,–,–,–,–,–,–,–,–,–,–,–
[O-][S+]1CCON=C1c1ccc(Cl)c(Cl)c1 (stereo not shown) [Compound 4],500-1000 ppm,250-500 ppm,500-1000 ppm,50-100 ppm,2,2,10,2.5,10,5,10,5,10,25,10,10,25,2.5,10,25,MIC (ppm) against T. viride ([1]; T. viride): 25 ppm
CC(=O)c1ccc(C2=NOCC[S+]2[O-])cc1 (stereo not shown) [Compound 14],–,–,–,–,0,2,–,–,–,–,–,–,–,–,–,–,–,–,–,–,–
O=S1(=O)CCON=C1c1cccs1 [Compound 34],–,–,–,–,–,–,5,5,25,5,25,2.5,25,25,10,25,25,5,5,25,"Surface score of treated mini-boards, 3 week incubation, 1500 ppm [2]: 0; Surface score of treated mini-boards, 6 week incubation, 1500 ppm [2]: 2.4; Surface score of treated mini-boards, 3 week incubation, 2500 ppm [2]: 0; Surface score of treated mini-boards, 6 week incubation, 2500 ppm [2]: 2.4; Threshold concentration (ppm), A. niger, score 0 [3]: 500 ppm; Threshold concentration (ppm), A. niger, score 1-2 [3]: <250 ppm; Threshold concentration (ppm), Aureobasidium, score 0 [3]: >1000 ppm; Threshold concentration (ppm), Aureobasidium, score 1-2 [3]: 250-500 ppm; Threshold concentration (ppm), Sclerophoma, score 0 [3]: 100 ppm; Threshold concentration (ppm), Sclerophoma, score 1-2 [3]: <50 ppm; Threshold concentration (ppm), Trichoderma, score 0 [3]: 2500 ppm; Threshold concentration (ppm), Trichoderma, score 1-2 [3]: 500-1000 ppm; MIC (ppm) against T. viride ([1]; T. viride): >25 ppm"
C[S+]1CCON=C1c1cc(Cl)cc(Cl)c1 (stereo not shown) [Compound 19],250-500 ppm,250-500 ppm,<250 ppm,250-500 ppm,–,–,25,–,–,25,–,10,>25,–,25,25,>25,25,25,>25,"MIC ([1]; Aspergillus niger, A. niger, read-out: MIC (ppm) against A. niger): 2.5 µg/mL; MIC ([1]; Aureobasidium pullulans, A. pullulans, read-out: MIC (ppm) against A. pullulans): 25 µg/mL; MIC ([1]; Cladosporium cladosporioides, C. cladosporioides, read-out: MIC (ppm) against C. cladosporioides): 25 µg/mL; MIC ([1]; Geotrichum candidum, G. candidum, read-out: MIC (ppm) against G. candidum): > 25 µg/mL; MIC ([1]; Trichoderma viride, T. viride, read-out: MIC (ppm) against T. viride): 25 µg/mL"
[O-][S+]1CCON=C1c1cccs1 (stereo not shown) [Compound 8],250-500 ppm,250-500 ppm,500-1000 ppm,50-100 ppm,2,2,10,25,>25,10,>25,5,25,>25,>25,>25,25,10,10,25,"Surface score of treated mini-boards, 3 week incubation, 1500 ppm [2]: 0; Surface score of treated mini-boards, 6 week incubation, 1500 ppm [2]: 0.8; Surface score of treated mini-boards, 3 week incubation, 2500 ppm [2]: 0; Surface score of treated mini-boards, 6 week incubation, 2500 ppm [2]: 0.4; Threshold concentration (ppm), A. niger, score 0 [3]: 1000 ppm; Threshold concentration (ppm), A. niger, score 1-2 [3]: 250-500 ppm; Threshold concentration (ppm), Aureobasidium, score 0 [3]: >1000 ppm; Threshold concentration (ppm), Aureobasidium, score 1-2 [3]: 250-500 ppm; Threshold concentration (ppm), Sclerophoma, score 0 [3]: 100 ppm; Threshold concentration (ppm), Sclerophoma, score 1-2 [3]: 50-100 ppm; Threshold concentration (ppm), Trichoderma, score 0 [3]: 1000 ppm; Threshold concentration (ppm), Trichoderma, score 1-2 [3]: 500-1000 ppm; MIC (ppm) against T. viride ([1]; T. viride): >25 ppm"
C[S+]1CCON=C1c1ccc(C(F)(F)F)cc1 (stereo not shown) [Compound 25],250-500 ppm,<250 ppm,<250 ppm,50-100 ppm,–,–,–,–,–,–,–,–,–,–,–,–,–,–,–,–,–
